Tests used:
Details in all cases: 72 h
MV4-11 [1] = system: MV4-11
Method in brief: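 Fifteen myeloid leukaemia cell lines were seeded in RPMI 1640 at densities titrated to the linear growth range and placed in 384-well plates with acoustically pre-printed compounds at five tenfold doses from 1 to 10,000 nM, in duplicate. After 72 h at 37 °C with 5% CO2, luminescent ATP viability was normalised to vehicle and to a positive control at 10 µM, and curves were fitted with a four-parameter log-logistic model. The IC50 was obtained from these fits.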

HL-60 [2] = test: cell viability (% survival relative to DMSO control); higher = less cytotoxic
Method in brief: (§1)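 Area under the curve, where listed, was derived from four-parameter log-logistic fits with drc and PharmacoGx. These fits used CellTiter-Glo viability from HL-60 cells in RPMI 1640 with 10% FBS, normalised to DMSO wells and wells holding 10 μM proteasome inhibitor. The full library was rescreened on 384-well plates in duplicate at five tenfold concentrations, 1–10,000 nM, with DMSO or 100 nM of one of three metabolic inhibitors, for 72 h at 37 °C, 5% CO2.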

BV-173 = test: cell viability (% survival relative to DMSO control, bortezomib = 0%); higher = less cytotoxic
Method in brief: (§2)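 Seeding density for each of the 10 AML and 5 CML cell lines was titrated to the linear growth range. Cells went into 384-well plates pre-printed in duplicate with compounds at 1, 10, 100, 1000 or 10000 nM and were held for 72 h at 37 °C with 5% CO2. CellTiter-Glo luminescence then provided the readout. Percent survival is expressed relative to vehicle at 100% and a 10 µM positive control at 0%, averaged over duplicates.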

HEL = test: as above
Method in brief: as §2

HL-60 [3] = test: as above
Method in brief: as §2

K-562 = test: as above
Method in brief: as §2

KCL-22 = test: as above
Method in brief: as §2

KG-1 = test: as above
Method in brief: as §2

KU-812 = test: as above
Method in brief: as §2

LAMA-84 = test: as above
Method in brief: as §2

ML-2 = test: as above
Method in brief: as §2

MOLM-13 = test: as above
Method in brief: as §2

MV4-11 [4] = test: as above
Method in brief: as §2

Mono-Mac-6 = test: as above
Method in brief: as §2

NOMO-1 = test: as above
Method in brief: as §2

SHI-1 = test: as above
Method in brief: as §2

THP-1 = test: as above
Method in brief: as §2

HL-60 [5] = test: area under dose-response curve (viability, 1 nM-10 uM) (fraction (0-1)); higher = more sensitive
Method in brief: as §1

CN(C)CCNC(=O)c1cccn2c(=O)c3cc4ccccc4cc3nc12 [Bmh-21]
Details	IC50 (cell viability) [µM]
MV4-11 [1]	2.78

cell viability [%], HL-60 [2]
Details	0.001 µM	0.01 µM	0.1 µM	1 µM	10 µM
co-treatment: AZD3965 100 nM	97.56	95.3	101	91.9	48.8
co-treatment: DMSO vehicle	101.2	98.3	102	98.4	74.2
co-treatment: GSK2194069 100 nM	98.9	102	101	94.5	66
co-treatment: pictilisib 100 nM	94.2	100.6	104	85.7	73.8

Details	area under dose-response curve, co-treatment: AZD3965 100 nM	area under dose-response curve, co-treatment: DMSO vehicle	area under dose-response curve, co-treatment: GSK2194069 100 nM	cell viability, 1 nM [%]	cell viability, 10 nM [%]	cell viability, 100 nM [%]	cell viability, 1000 nM [%]	cell viability, 10000 nM [%]
BV-173	–	–	–	105	98.6	95.8	-0.204	-0.415
HEL	–	–	–	110	93.8	93.8	8	0.459
HL-60 [3]	–	–	–	102	108	93.6	107	77.7
HL-60 [5]	0.0645	0.0352	0.0524	–	–	–	–	–
K-562	–	–	–	108	84.5	94.1	92.9	44.3
KCL-22	–	–	–	115	113	98.7	0.317	0.85
KG-1	–	–	–	104	101	104	9.79	0.81
KU-812	–	–	–	98.1	105	108	15.5	-0.163
LAMA-84	–	–	–	103	107	95.2	21.2	1.47
ML-2	–	–	–	111	106	99.4	-0.0196	-0.0121
MOLM-13	–	–	–	123	92.6	102	87.6	22.1
MV4-11 [4]	–	–	–	107	85.5	90.4	78.8	11.1
Mono-Mac-6	–	–	–	89.8	101	106	0.313	0.0551
NOMO-1	–	–	–	106	101	101	45.9	-0.0945
SHI-1	–	–	–	108	102	81.7	94	53.7
THP-1	–	–	–	102	96.4	104	45.1	-0.241

C#CCN[C@@H]1CCc2ccccc21 [Rasagiline]
Details	IC50 (cell viability) [µM]
MV4-11 [1]	> 10

cell viability [%], HL-60 [2]
Details	0.001 µM	0.01 µM	0.1 µM	1 µM	10 µM
co-treatment: AZD3965 100 nM	102	96.6	100	97.1	99.9
co-treatment: DMSO vehicle	101	102	102	100.1	95.4
co-treatment: GSK2194069 100 nM	105	107	100	102	99.9
co-treatment: pictilisib 100 nM	89.6	87.5	103	95.6	102

Details	area under dose-response curve, co-treatment: AZD3965 100 nM	area under dose-response curve, co-treatment: DMSO vehicle	area under dose-response curve, co-treatment: GSK2194069 100 nM	area under dose-response curve, co-treatment: pictilisib 100 nM	cell viability, 1 nM [%]	cell viability, 10 nM [%]	cell viability, 100 nM [%]	cell viability, 1000 nM [%]	cell viability, 10000 nM [%]
BV-173	–	–	–	–	92.1	104	111	93.6	92.4
HEL	–	–	–	–	118	115	117	90.1	135
HL-60 [3]	–	–	–	–	95.8	86.6	96.9	76.2	135
HL-60 [5]	< 0.0301	< 0.0301	< 0.0301	< 0.0301	–	–	–	–	–
K-562	–	–	–	–	103	100	100	87.5	84.2
KCL-22	–	–	–	–	80.3	108	98.4	89.7	135
KG-1	–	–	–	–	88.3	116	98.5	89.8	114
KU-812	–	–	–	–	94.1	104	97.1	90.3	111
LAMA-84	–	–	–	–	98.2	106	106	91.8	97.2
ML-2	–	–	–	–	89.9	104	105	87.2	104
MOLM-13	–	–	–	–	93.9	109	111	95.9	111
MV4-11 [4]	–	–	–	–	97.8	104	108	91.7	96
Mono-Mac-6	–	–	–	–	92.4	105	101	80.9	100
NOMO-1	–	–	–	–	95.2	103	103	93.2	102
SHI-1	–	–	–	–	97.8	103	100	95.3	117
THP-1	–	–	–	–	102	102	103	96	101

Reference: the supplement of paper PMC8671470
